# Data from patent US11007212B2, “Microbubble complexes and methods of use” (General Electric Company, priority 2011, dated 2021).
# {CholTEG} = cholesteryl-TEG lipid
# Assays:
# Optison = molecular target: T1, Optison (Homo sapiens, UniProt P02768); test: Gel shift assay, binding of siRNA to Optison albumin solution
# T1 construct: purchased GE Healthcare, Chalfont St. Giles, United Kingdom
# denatured HSA = test: Gel shift assay, binding of siRNA to denatured HSA; set-up: species or system human; conditions: same amount of denatured HSA, compared with native HSA and Optison
# Description: The reaction buffer was 1× PBS, pH 7.4.
# [1] = tested on: U-87 human glioblastoma cells; test: Delivery of siRNA to U-87 tumor cells (cell cy3-fluorescence); format: cell-based; conditions: U-87 cells, 40 pmoles siRNA, 24 hours after sonication, MI>1.3
# Method: (§1) MATBIII rat mammary carcinoma and U-87 human glioblastoma cells were cultured in McCoy's 5A Medium (modified) (1×) (Invitrogen, Carlsbad, Calif., USA) and Eagle's Minimum Essential Medium (EMEM) (ATCC, Manassas, Va.) respectively. Both the media solutions were supplemented with 10% heat deactivated fetal bovine serum (FBS) (Fisher Scientific, Springfield, N.J.) and 1% penicillin-streptomycin (Sigma Aldrich, St Louis, Mo.). The cells were maintained at 37° C. in a humidified atmosphere with 5% CO2.
# (§2) MATB-III and U-87 cells were grown in 10 mL capacity Opticell units (Nalge Nunc International, Rochester, N.Y.) to 90% confluence. The media in OptiCell was replaced with 10 mL fresh media containing 40 pmoles of either cy3-siRNA or cholesterol-siRNA. […] After incubation, the cells were imaged using a fluorescence microscope (Zeiss Axio Imager.Z1, Carl Zeiss). […] In the region of interest (ROI) in the fluorescent images, cell fluorescence was measured and the mean values of cell fluorescence were calculated. ImageJ was used to process the images and calculate fluorescence intensities.
# (§3) The data are reported as mean+1.0 standard error (SE) for N=4. The statistical significance of the differences between the groups was evaluated using two-sample t-test and the statistical analyses were carried out using Minitab® 12 (Minitab Inc, State College, Pa. USA).
# [2] = tested on: MATBIII rat mammary carcinoma cells; test: Delivery of siRNA to MATBIII cells, Optison/ultrasound versus RNAifect; format: cell-based; conditions: 24 hours
# Method: as §1, §2, §3
# native HSA = native HSA (Homo sapiens, UniProt P02768)
# Sequence of native HSA (P02768 25-609): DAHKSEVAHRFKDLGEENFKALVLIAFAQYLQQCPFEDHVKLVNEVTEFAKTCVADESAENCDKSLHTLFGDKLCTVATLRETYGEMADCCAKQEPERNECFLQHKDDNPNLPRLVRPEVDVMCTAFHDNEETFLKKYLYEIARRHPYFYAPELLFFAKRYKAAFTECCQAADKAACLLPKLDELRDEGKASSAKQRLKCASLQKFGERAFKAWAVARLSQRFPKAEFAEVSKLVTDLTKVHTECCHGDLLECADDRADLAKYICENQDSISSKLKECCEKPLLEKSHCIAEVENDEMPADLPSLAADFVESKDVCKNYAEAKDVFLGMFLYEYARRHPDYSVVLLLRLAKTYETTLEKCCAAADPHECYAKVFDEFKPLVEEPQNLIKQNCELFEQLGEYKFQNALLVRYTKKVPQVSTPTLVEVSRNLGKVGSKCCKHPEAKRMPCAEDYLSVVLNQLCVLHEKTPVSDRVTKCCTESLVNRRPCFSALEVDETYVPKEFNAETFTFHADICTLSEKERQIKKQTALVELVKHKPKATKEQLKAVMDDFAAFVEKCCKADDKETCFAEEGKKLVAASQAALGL
# Method: Optison™ (GE Healthcare, Chalfont St. Giles, United Kingdom, 10 mg/ml albumin) was centrifuged; the top layer was discarded and the excess albumin solution in the bottom was used for the binding studies. Lyophilized human serum albumin (HSA) powder (Sigma Aldrich, St. Louis Mo.) was dissolved in 1× phosphate buffered saline (PBS) to make a stock solution of 10 mg/mL. Both Optison and native albumin solution dilutions were prepared with 1× PBS. Denatured HSA solution was prepared by heating native ESA solution to 80° C. for 20 minutes.
# The stock solutions of cy3-siRNA and cy3-siRNA-cholesterol, 20 μM were prepared in RNAse free water and stored at −20° C. […]
# All the reactions were loaded onto precast 6% nondenaturing polyacrylamide gels (Invitrogen, Carlsbad, Calif., USA). […] The gels containing either DNA, protein or both were imaged for cy3 fluorescence using a typhoon scanner (Typhoon™9410, GE Healthcare).
# The fluorescence of Cy3 attached to siRNA can be visualized as distinct siRNA bands on the gel.
# The fluorescence intensity of siRNA in each lane was estimated manually by drawing a box around the bands. […] Fluorescence intensities of bound siRNA over a wide range of albumin concentrations were calculated. Relative fluorescence, R was calculated as: R=(Fbound-Ffree)/Ffree (1) […]
# T1 sequence (P02768 25-609): as above
substance,measurement,setting,value
"cholesterol-siRNA: siRNA for VEGF silencing, 5'-Cy3 labelled, cholesteryl TEG lipid at 3' of sense strand (SEQ ID NO: 1 and 2) (sense GCAUUUGUUUGUCCAAGAUUU; antisense AAAUCUUGGACAAACAAAUGC; sense: 3' {CholTEG}, sugars by position and backbone not given here; antisense: chemistry not given here; 5'-Cy3 label, further chemistry not fully specified)",Binding to Optison solution in gel shift assay,Optison; 0 to 50 pmoles albumin,bound
same,Kd,"Optison; binding to Optison, gel shift, non-linear fit, read-out: Dissociation constant, kd",7.16 µM
same,Amount bound to Optison solution compared with native HSA,"Optison; low albumin concentration, 0 to 15 μM",higher
same,Binding to denatured HSA in gel shift assay,denatured HSA,significantly decreased
same,"Increase in average cell fluorescence, Optison/ultrasound treated versus untreated cells",[1],53%
same,"Average cell fluorescence, Optison/ultrasound delivery versus RNAifect",[2],no significant difference
same,Kd,native HSA,6.4 µM
same,Binding to native HSA in gel shift assay,native HSA; 0 to 50 pmoles albumin,bound
